Measurements from patent US20050020519A1, “Modulation of insulin-regulated aminopeptidase (irap)/angiotensin iv (at4) receptor activity” (priority 2001, published 2005).
Where no end group is shown, it is not given here.

Legend:
AT4 receptor [1] = settings: Moeller et al, 1996; Zhang et al, 1999; cited from earlier work
IRAP = molecular target: T1, IRAP (Homo sapiens, UniProt Q9UIQ6); assay: Degradation of peptides by IRAP expressed in HEK 293T cells, HPLC with mass spectrometric detection; assay type: biochemical
T1 construct: expressed in transfected cells; host or cells: HEK 293T cells (solubilised membrane protein)
Description: At each time point (0, 0.5, 1, 2, 4 & 6 hr), an aliquot containing 5 μg peptide was removed, and the reaction stopped by addition of 4 volumes methanol/1% trifluoroacetic acid (TPA). Samples were dried on a centrifugal vacuum evaporator prior to HPLC analysis with on-line mass spectrometric detector. […] Fragments were identified following mass spectral analysis, using Agilent ChemStation deconvolution software.

AT4 receptor [2] = molecular target: T2, AT4 receptor (Bos taurus, UniProt F1N1Q8); assay: AT4 radioreceptor assay, ^125I-Ang IV binding to bovine adrenal membranes
T2 construct: from tissue; host or cells: bovine adrenal gland membranes
T2 sequence (F1N1Q8 1-1022): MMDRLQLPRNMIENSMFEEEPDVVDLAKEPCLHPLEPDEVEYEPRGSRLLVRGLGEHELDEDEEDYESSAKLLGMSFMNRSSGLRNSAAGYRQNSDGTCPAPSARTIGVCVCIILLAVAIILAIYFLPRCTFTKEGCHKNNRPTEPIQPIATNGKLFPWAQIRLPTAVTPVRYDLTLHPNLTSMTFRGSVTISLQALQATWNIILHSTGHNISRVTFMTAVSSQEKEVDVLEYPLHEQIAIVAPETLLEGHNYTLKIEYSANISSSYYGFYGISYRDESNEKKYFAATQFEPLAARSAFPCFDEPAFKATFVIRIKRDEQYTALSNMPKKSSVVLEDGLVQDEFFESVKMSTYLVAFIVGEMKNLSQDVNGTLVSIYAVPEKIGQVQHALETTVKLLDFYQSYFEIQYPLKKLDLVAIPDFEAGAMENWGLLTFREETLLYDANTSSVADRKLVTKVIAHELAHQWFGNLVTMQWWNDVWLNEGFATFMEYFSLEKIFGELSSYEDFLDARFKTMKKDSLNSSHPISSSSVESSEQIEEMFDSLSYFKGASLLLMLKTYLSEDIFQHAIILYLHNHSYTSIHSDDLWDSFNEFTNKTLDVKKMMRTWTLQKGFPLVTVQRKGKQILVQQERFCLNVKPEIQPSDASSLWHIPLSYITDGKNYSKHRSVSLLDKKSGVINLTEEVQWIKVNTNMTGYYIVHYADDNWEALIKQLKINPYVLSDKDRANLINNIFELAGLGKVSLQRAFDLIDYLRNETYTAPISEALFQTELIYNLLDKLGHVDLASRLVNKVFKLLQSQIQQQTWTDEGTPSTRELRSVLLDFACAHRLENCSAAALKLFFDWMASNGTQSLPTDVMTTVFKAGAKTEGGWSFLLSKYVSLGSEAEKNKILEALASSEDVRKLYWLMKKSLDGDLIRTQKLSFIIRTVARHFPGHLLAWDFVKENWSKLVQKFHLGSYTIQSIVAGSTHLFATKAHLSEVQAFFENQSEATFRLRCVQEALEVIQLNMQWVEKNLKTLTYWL
Description: The AT4 radioreceptor assay was used to screen the sheep brain extracts for AT4 receptor modulatory activity. The membranes were prepared using bovine adrenal glands obtained from the abattoir. The adrenals were diced, homogenized in ice-cold hypotonic buffer (50 mM Tris, 5 mM EDTA, pH 7.4) and centrifuged for 10 min at 500 g. […] The resulting pellets were re-homogenized in hypotonic buffer. […] The samples were incubated for 2 h at 37° C., and the bound ligand was separated on Whatman GF/B glass fibre filters.

rats = assay: Passive avoidance, scopolamine-induced amnesia; assay type: in vivo, rat
Description: Passive avoidance trials were then used to test the effect of modulation of AT4 receptor/IRAP activity on aversive conditioning behaviour in amnesic animals. The passive avoidance task involves aversive conditioning behaviour to measure facilitation of memory retention and retrieval. The testing was carried out in an apparatus that consisted of a light and a dark compartment separated by a guillotine door. The floor of the dark compartment contained an electrified grid.
Rats were surgically implanted with chronic cannulae in the lateral ventricle. On conditioning day, the animals were habituated in the dark compartment for 5 min with the guillotine door closed. The animals were then placed in their home cages for 5 min before being placed in the light compartment with the guillotine door opened. The latency to enter the dark compartment with all four feet was documented. When the rats entered the dark compartment within 20 s of being placed in the light compartment, they were randomly divided into four treatment groups. The treatment groups were: • (1) saline followed by saline; • (2) saline followed by 1.0 nmole […] (SEQ ID NO:2); • (3) 70 nmole scopolamine followed by saline; and • (4) 70 nmole scopolamine followed by 1.0 nmole […] (SEQ ID NO:2).
All of these were administered into the cerebral ventricles 30 min and 5 min before the acquisition trial. […]

mice = assay: Y maze spatial memory, normal mice; assay type: in vivo, mouse
Description: The Y maze consists of three identical alleys (30 cm in length, 10 cm in width and 17 cm in height) with the three arms separated by 120° angles. To minimize stress, the maze is located in a sound-attenuated room under dim illumination, with the floor of the maze covered with sawdust. After each trial, the sawdust is mixed to eliminate olfactory cues. For spatial orientation, visual cues are placed on the walls of the testing room.
The test consisted of two trials, separated by a time interval known as the intertrial interval. During the acquisition trial, the animals were placed at the distal end of one arm, their heads pointing away from the centre of the maze. The mice were allowed to visit only two accessible arms of the maze for 3 minutes. At the end of the acquisition trial, the mice were replaced in their cages for the intertrial interval. During the retention trial, the animals had access to all three arms for 5 minutes. The number and duration of time spent in the novel arm were documented.
A shorter intertrial interval (2 hours) separating the acquisition phase from the retention phase enables amnesiant effects to be detected. Control mice still remember the location of the novel arm and will preferentially spend more time (45-50% of time) in that arm.
Mice were surgically implanted with an infusion cannula in the dorsal third ventricle. […]

T1 sequence (Q9UIQ6 whole entry): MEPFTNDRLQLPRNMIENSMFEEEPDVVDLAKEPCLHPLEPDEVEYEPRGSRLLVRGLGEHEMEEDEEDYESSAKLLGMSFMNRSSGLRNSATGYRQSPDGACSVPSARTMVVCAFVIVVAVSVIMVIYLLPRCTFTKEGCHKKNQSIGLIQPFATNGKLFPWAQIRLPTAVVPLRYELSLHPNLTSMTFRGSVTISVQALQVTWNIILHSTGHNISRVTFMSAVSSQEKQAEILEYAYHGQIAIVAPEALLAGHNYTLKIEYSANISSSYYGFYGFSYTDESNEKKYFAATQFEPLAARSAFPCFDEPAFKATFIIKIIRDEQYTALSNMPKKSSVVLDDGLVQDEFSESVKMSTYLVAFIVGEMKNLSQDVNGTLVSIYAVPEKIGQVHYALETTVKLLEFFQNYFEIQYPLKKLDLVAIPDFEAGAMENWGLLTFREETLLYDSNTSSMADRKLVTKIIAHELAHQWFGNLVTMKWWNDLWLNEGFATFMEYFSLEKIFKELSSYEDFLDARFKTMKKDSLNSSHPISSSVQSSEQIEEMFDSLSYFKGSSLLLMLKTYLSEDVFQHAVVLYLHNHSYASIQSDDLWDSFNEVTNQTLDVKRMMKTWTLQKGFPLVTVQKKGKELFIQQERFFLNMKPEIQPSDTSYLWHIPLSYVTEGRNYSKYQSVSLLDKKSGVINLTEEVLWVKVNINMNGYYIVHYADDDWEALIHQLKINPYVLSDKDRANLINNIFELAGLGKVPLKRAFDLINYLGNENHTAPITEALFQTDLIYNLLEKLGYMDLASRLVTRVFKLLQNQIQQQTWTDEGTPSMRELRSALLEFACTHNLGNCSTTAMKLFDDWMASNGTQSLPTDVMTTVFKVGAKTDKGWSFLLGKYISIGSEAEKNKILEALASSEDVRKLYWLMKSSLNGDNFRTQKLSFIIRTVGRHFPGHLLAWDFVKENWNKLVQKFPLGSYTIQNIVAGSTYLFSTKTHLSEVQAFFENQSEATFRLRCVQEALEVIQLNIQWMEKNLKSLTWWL

## LVVYPWTQRF
AT4 receptor [1]
  affinity for AT4 receptor: nanomolar affinity
IRAP; 37° C., hIRAP transfected HEK 293T membranes, (=UT) equals untransfected control cells
  Substrate disappearance over 4 hr: 14% (=UT)
IRAP; incubation at 37° C. with solubilized membrane protein from hIRAP transfected HEK 293T cells
  Products Identified: VVYPWTQRF
AT4 receptor [2]
  Ki: 1 to 5 nM
rats; 1.0 nmole icv after 70 nmole scopolamine
  latency to re-enter the dark compartment: not significantly different from controls
rats; 1.0 nmole icv alone (after saline)
  latency to re-enter the dark compartment: comparable to the scopolamine-treated group
mice; after 6 days of infusion at 0.3 pmol/h
  time in novel arm versus control mice: indistinguishable from each other
mice; after three days of infusion at 0.3 pmol/h, 6 h intertrial interval, control approximately 33%
  time spent in the novel arm: 50-60 % of time
